Experimental data as given in PubChem BioAssay AID248 (DTP/NCI, 2004).
Where “and” joins values, the source holds several entries; their conditions need not be identical. Equal values may be shown once. Toxic doses and inconclusive results are not listed. Rule as the data show it: active = T/C of 150% or more; inactive = T/C below 125%.

Tested on: L1210 leukemia ip in BDF1 mice, survival T/C
Experiment: NCI In Vivo Anticancer Drug Screen. Data for tumor model L1210 Leukemia (intraperitoneal) in B6D2F1 (BDF1) mice
Conditions: endpoint: mean survival time, higher = longer survival
In short: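 Mice bearing the transplanted tumor received compound or vehicle. Survival of the treated group was divided by that of the vehicle-treated control group to give the ratio.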

[1] = dose: 75.0 mg/kg/injection, schedule: Q01DX001 (ip), vehicle: saline
[2] = dose: 100.0 mg/kg/injection, schedule: Q04DX003 (ip), vehicle: saline with Tween-80
[3] = dose: 200.0 mg/kg/injection, schedule: Q04DX003 (ip), vehicle: saline with Tween-80
[4] = dose: 400.0 mg/kg/injection, schedule: Q04DX003 (ip), vehicle: saline with Tween-80
[5] = dose: 100.0 mg/kg/injection, schedule: Q01DX001 (ip), vehicle: saline
[6] = dose: 100.0 mg/kg/injection, schedule: Q04DX003 (ip), vehicle: saline
[7] = dose: 200.0 mg/kg/injection, schedule: Q01DX001 (ip), vehicle: saline
[8] = dose: 200.0 mg/kg/injection, schedule: Q04DX003 (ip), vehicle: saline
[9] = dose: 400.0 mg/kg/injection, schedule: Q01DX001 (ip), vehicle: saline
[10] = dose: 100.0 mg/kg/injection, schedule: Q04DX002 (ip), vehicle: Klucel (hydroxypropylcellulose) (HPC)
[11] = dose: 200.0 mg/kg/injection, schedule: Q04DX002 (ip), vehicle: Klucel (hydroxypropylcellulose) (HPC)
[12] = dose: 100.0 mg/kg/injection, schedule: Q01DX009 (ip), vehicle: Klucel (hydroxypropylcellulose) (HPC)
[13] = dose: 200.0 mg/kg/injection, schedule: Q01DX009 (ip), vehicle: Klucel (hydroxypropylcellulose) (HPC)
[14] = dose: 100.0 mg/kg/injection, schedule: Q01DX009 (ip), vehicle: saline with Tween-80
[15] = dose: 200.0 mg/kg/injection, schedule: Q01DX009 (ip), vehicle: saline with Tween-80
[16] = dose: 400.0 mg/kg/injection, schedule: Q01DX009 (ip), vehicle: saline with Tween-80

Measured: T/C

C[N+](C)(C)CC1CCCCC1
inactive: [1] 103 % of control

CCCCCCCCCCCCCCCCCCNC(=S)Nc1ccccc1
inactive: [2] 95 % of control | [3] 90 % of control | [4] 92 % of control

CN(C)c1nc(N)nc(Nc2ccc(Br)cc2)c1N=O
inactive: dose: 50.0 mg/kg/injection, schedule: Q01DX001 (ip), vehicle: carboxymethylcellulose (CMC) 109 % of control | dose: 100.0 mg/kg/injection, schedule: Q01DX001 (ip), vehicle: carboxymethylcellulose (CMC) 95 % of control | [5] 105 % of control | dose: 100.0 mg/kg/injection, schedule: Q01DX009 (ip), vehicle: saline 107 % of control | [6] 107 % of control | dose: 200.0 mg/kg/injection, schedule: Q01DX001 (ip), vehicle: carboxymethylcellulose (CMC) 103 % of control | [7] 116 % of control | dose: 200.0 mg/kg/injection, schedule: Q01DX009 (ip), vehicle: saline 119 % of control | [8] 98 % of control | dose: 400.0 mg/kg/injection, schedule: Q01DX001 (ip), vehicle: carboxymethylcellulose (CMC) 95 % of control | [9] 116 % of control | dose: 400.0 mg/kg/injection, schedule: Q01DX009 (ip), vehicle: saline 109 % of control | dose: 400.0 mg/kg/injection, schedule: Q04DX003 (ip), vehicle: saline 96 % of control

Cc1cc(N(CCOS(C)(=O)=O)CCOS(C)(=O)=O)ccc1C=Nc1ccc(-c2nc(Cc3ccccc3)sc2C)cc1
inactive: dose: 12.5 mg/kg/injection, schedule: Q01DX009 (ip), vehicle: Klucel (hydroxypropylcellulose) (HPC) 115 % of control | dose: 66.0 mg/kg/injection, schedule: Q04DX003 (ip), vehicle: Klucel (hydroxypropylcellulose) (HPC) 115 % of control

CC1CC2CCCC(O)=C2C(=O)O1 (stereo not given)
inactive: [5] 102 % of control | [7] 102 % of control | [9] 105 % of control

C[C@]12CCC(=O)C=C1CC[C@@H]1[C@@H]2[C@@H](O)C[C@@]2(C)[C@H]1CC[C@]2(O)C(=O)COC(=O)CCC1CCCC1
inactive: dose: 50.0 mg/kg/injection, schedule: Q04DX003 (sc), vehicle: steriod suspending solution 100 % of control | dose: 100.0 mg/kg/injection, schedule: Q04DX003 (sc), vehicle: steriod suspending solution 96 % of control | dose: 200.0 mg/kg/injection, schedule: Q04DX003 (sc), vehicle: steriod suspending solution 97 % of control | dose: 400.0 mg/kg/injection, schedule: Q04DX003 (sc), vehicle: steriod suspending solution 96 % of control

O=C(COc1ccc(Cl)cc1Cl)Nc1ccc(S(=O)(=O)O)cc1
inactive: [10] 92 % of control | [11] 111 % of control | dose: 400.0 mg/kg/injection, schedule: Q04DX002 (ip), vehicle: Klucel (hydroxypropylcellulose) (HPC) 103 % of control

O/N=c1\ncn(O)c2nc[nH]c12
inactive: [1] 93 % of control | dose: 150.0 mg/kg/injection, schedule: Q01DX001 (ip), vehicle: saline 103 % of control | dose: 300.0 mg/kg/injection, schedule: Q01DX001 (ip), vehicle: saline 93 % of control | dose: 300.0 mg/kg/injection, schedule: Q01DX009 (ip), vehicle: saline 123 % of control

Cc1ccc(NC(=O)Oc2ccc(-c3ccccc3)cc2)cc1
inactive: [12] 107 % of control | [13] 100 % of control | dose: 400.0 mg/kg/injection, schedule: Q01DX009 (ip), vehicle: Klucel (hydroxypropylcellulose) (HPC) 92 % of control

O=C1C=Cc2ccc(O)cc2C1=O
inactive: dose: 0.57 mg/kg/injection, schedule: Q01DX Z (ip), vehicle: saline 107 % of control | dose: 0.86 mg/kg/injection, schedule: Q01DX Z (ip), vehicle: saline 109 % of control | dose: 1.3 mg/kg/injection, schedule: Q01DX Z (ip), vehicle: saline 113 % of control | dose: 2.0 mg/kg/injection, schedule: Q01DX Z (ip), vehicle: saline 101 % of control and 104 % of control | dose: 3.0 mg/kg/injection, schedule: Q01DX Z (ip), vehicle: saline 89 % of control | dose: 4.5 mg/kg/injection, schedule: Q01DX Z (ip), vehicle: saline 95 % of control | dose: 6.7 mg/kg/injection, schedule: Q01DX Z (ip), vehicle: saline 101 % of control and 90 % of control | dose: 10.0 mg/kg/injection, schedule: Q01DX001 (ip), vehicle: acetone 104 % of control

CCCCCCCCCCCCSC(=N)N
inactive: dose: 12.5 mg/kg/injection, schedule: Q01DX009 (ip), vehicle: acetone 103 % of control | dose: 12.5 mg/kg/injection, schedule: Q04DX003 (ip), vehicle: saline with Tween-80 98 % of control | dose: 25.0 mg/kg/injection, schedule: Q01DX009 (ip), vehicle: acetone 95 % of control | dose: 25.0 mg/kg/injection, schedule: Q04DX003 (ip), vehicle: saline with Tween-80 100 % of control | dose: 25.0 mg/kg/injection, schedule: Q04DX003 (ip), vehicle: saline 104 % of control | dose: 35.0 mg/kg/injection, schedule: Q04DX003 (ip), vehicle: saline 89 % of control | dose: 50.0 mg/kg/injection, schedule: Q04DX003 (ip), vehicle: saline with Tween-80 95 % of control | dose: 50.0 mg/kg/injection, schedule: Q04DX003 (ip), vehicle: saline 91 % of control | dose: 75.0 mg/kg/injection, schedule: Q04DX003 (ip), vehicle: saline 89 % of control | [6] 94 % of control and 95 % of control | dose: 115.0 mg/kg/injection, schedule: Q04DX003 (ip), vehicle: saline 97 % of control

CN(C)NCC(O)COc1ccc(Cl)cc1 (stereo not given)
inactive: [10] 103 % of control | [11] 100 % of control

CC(=O)C1C(N2CC2)CC2C3CCC4=CC(=O)CCC4(C)C3CCC21C (stereo not given)
inactive: dose: 50.0 mg/kg/injection, schedule: Q01DX001 (sc), vehicle: steriod suspending solution 101 % of control | dose: 100.0 mg/kg/injection, schedule: Q01DX001 (sc), vehicle: steriod suspending solution 104 % of control | dose: 200.0 mg/kg/injection, schedule: Q01DX001 (sc), vehicle: steriod suspending solution 101 % of control

Nc1ccccc1SC1CC(=O)N(c2ccc(Cl)cc2)C1=O (stereo not given)
inactive: [14] 91 % of control | [2] 89 % of control | [15] 88 % of control | [3] 101 % of control | [16] 98 % of control | [4] 97 % of control

CC([NH-])C(=O)[O-].[K+].[O]=[Co][O-] (stereo not given)
inactive: [1] 107 % of control

CCOCCOCCOC(C)Oc1ccc(Cl)cc1C (stereo not given)
inactive: dose: 100.0 mg/kg/injection, schedule: Q04DX002 (ip), vehicle: saline with Tween-80 123 % of control | dose: 200.0 mg/kg/injection, schedule: Q04DX002 (ip), vehicle: saline with Tween-80 100 % of control | dose: 400.0 mg/kg/injection, schedule: Q04DX002 (ip), vehicle: saline with Tween-80 103 % of control

C/C(CC(=O)Nc1ccccn1)=N\c1ccccn1
inactive: [5] 98 % of control | [7] 92 % of control | [9] 88 % of control

COCCCN1CC2CCCC1O2 (stereo not given)
inactive: dose: 50.0 mg/kg/injection, schedule: Q01DX001 (ip), vehicle: saline 91 % of control | [5] 95 % of control | [7] 97 % of control

COc1ccc(/C=C/C(=O)c2ccccc2)cc1
inactive: [14] 93 % of control and 101 % of control | [2] 93 % of control | [15] 95 % of control and 96 % of control | [3] 96 % of control | [16] 111 % of control and 91 % of control | [4] 104 % of control

O=C(CCCN1CCC(O)CC1)c1ccccc1
inactive: [6] 90 % of control | [8] 104 % of control

Cc1c(CC#N)cc(C)c2c3c([nH]c12)CCCC3
inactive: dose: 50.0 mg/kg/injection, schedule: Q01DX009 (ip), vehicle: Klucel (hydroxypropylcellulose) (HPC) 95 % of control | [12] 98 % of control | [13] 91 % of control

ClC1=C2C=CC=CC2C(Cl)(c2ccccc2)C2=C1C(Cl)=C1C=CC=CC1C2(Cl)c1ccccc1 (stereo not given)
inactive: dose: 100.0 mg/kg/injection, schedule: Q01DX001 (ip), vehicle: Klucel (hydroxypropylcellulose) (HPC) 106 % of control | dose: 200.0 mg/kg/injection, schedule: Q01DX001 (ip), vehicle: Klucel (hydroxypropylcellulose) (HPC) 101 % of control | dose: 400.0 mg/kg/injection, schedule: Q01DX001 (ip), vehicle: Klucel (hydroxypropylcellulose) (HPC) 101 % of control
